Data: patent US20160281125A1, “ANTIMICROBIAL COMPOUND SUSCEPTIBILITY TEST” (priority 2013, published 2016)

Assays:
[1] = tested on: K. pneumo 13882; test: Selective lysis test, OD600, meropenem and cefotaxime (Example 2); format: cell-based, K. pneumoniae
Description: (§1) In this experiment the following strains were tested: strain K. pneumoniae 13882 (previously considered meropenem sensitive and cefotaxime sensitive); E. coli BAA-197 (ESBL) (which expresses an extended-spectrum (beta)-lactamase enzyme and was previously considered meropenem sensitive and cefotaxime resistant); K. pneumoniae BAA-1705 (KPC) (which expresses a carbapenemase enzyme and was previously considered meropenem resistant and cefotaxime resistant); and K. pneumoniae BAA-2146 (NDM1) (which expresses the metallo-beta-lactamase-1 enzyme and was previously considered meropenem resistant and cefotaxime resistant).
(§2) An isolated colony from an overnight Tryptocase Soy Agar (TSA) plate of each bacteria was suspended in 1 ml Tryptocase Soy Broth (TSB) in a 5 ml BD polystyrene round bottom tube. TSB cultures were incubated at 37° C. for 1.5 hours shaking. Three 250 μl aliquots of each stationary-phase culture were then transferred to three 2 ml Eppendorf microcentrifuge tubes. One tube contained 500 μl of Normal Saline (BD); the second tube contained 500 μl Normal Saline with meropenem at 10 μg/ml; and the third tube contained 500 μl Normal Saline with cefotaxime (abbreviated […]) at 10 μg/ml. Tubes were inverted then incubated at 37° C. stagnant for thirty minutes. Then […] of lysis buffer (0.5% SDS in PSB) was added to each tube and each tube was vortexed for 5 seconds. Post incubation, all tubes were spun at 10000 G for 5 minutes. Supernatant was decanted and the pellet resuspended in Normal Saline. Tubes were vortexed. OD600 was measured using Eppendorf uvettes in a spectrophotometer. The delta between the control and the meropenem normal saline, or the control and the cefotaxime normal saline was used to determine susceptibility.

[2] = tested on: K. pneumo BAA-1705 (KPC); test: as above; format: cell-based, K. pneumoniae
Description: as §1, §2

[3] = tested on: K. pneumo BAA-2146 (NDM1); test: as above; format: cell-based, K. pneumoniae
Description: as §1, §2

[4] = tested on: E. coli strain 23858; test: Selective lysis test, BacUni QuickFISH staining (Example 3); format: cell-based; settings: FIG. 2; E. coli 23858; meropenem 10 μg/ml, 30 min, SDS lysis
Source text: (§3) An alternative to the spectrophotometer-based measurement of changes in turbidity for measuring cell lysis following treatment with the cell lysis conditions in Examples 1 and 2 is to stain samples using a stain that distinguishes between intact cells and lysed cells. In this example staining with BacUni QuickFISH™ was used to identify intact (i.e., non-lysed) cells. BacUN1 is a universal bacteria PNA probe that binds to an rRNA sequence present in most Gram-positive and Gram-negative bacteria. The PNA probe binds to universal rRNA in intact bacterial cells and the entire cell will appears green with fluorescent microscopy. If the bacterial cell had been lysed then the rRNA target would have been released from the bacterial cell and even of somewhat labeled it would not appear as a fluorescent bacterial cell.
(§4) An isolated colony from an overnight Tryptocase Soy Agar (TSA) plate of each bacteria was suspended in 1 ml Tryptocase Soy Broth (TSB) in a 5 ml BD polystyrene round bottom tube. TSB cultures were incubated at 37° C. overnight. Ten μl of overnight culture was inoculated into 1 ml TSB and incubated shaking at 37° C. for three hours. Two 250 μl aliquots of each log-phase culture was transferred to two 2 ml Eppendorf microcentrifuge tubes. One tube contained 500 μl of Normal Saline (BD); the second tube contained 500 μl Normal Saline with meropenem at 10 μg/ml. Tubes were inverted and then incubated at 37° C. stagnant for thirty minutes. Then […] (0.5% SDS in PSB) was added to each tube and the tubes were vortexed for 5 seconds. Post incubation, the entire culture was filtered through a 1 uM polycarbonate 18 mm filter. The filter was transferred to a plain glass slide and placed on a 55° C. heat block. Then 2 drops of 100% methanol were added to adhere the filter to the slide. Then 30 μl of BacUni QuickFISH™ hybridization buffer was added to the slide and a 50×22 mm coverslip was applied. The slide was then incubated at 55° C. for 15 minutes. The slide was viewed on fluorescence microscope using 60× oil immersion on Dual TxR/FITC. Images were taken with a 1 second exposure.

[5] = tested on: E. coli strain 25922; test: as above; format: cell-based; settings: FIG. 3; E. coli 25922; meropenem 10 μg/ml, 30 min, SDS lysis
Source text: as §3, §4

[6] = tested on: E. coli strain 35218; test: as above; format: cell-based; settings: FIG. 3; E. coli 35218; meropenem 10 μg/ml, 30 min, SDS lysis
Source text: as §3, §4

[7] = tested on: E. coli strain BAA-197 ESβL; test: as above; format: cell-based; settings: FIG. 1; E. coli BAA-197 ESβL; meropenem 10 μg/ml, 30 min, SDS lysis
Source text: as §3, §4

[8] = tested on: K. pneumoniae strain 13882; test: as above; format: cell-based; settings: FIG. 2; K. pneumoniae 13882; meropenem 10 μg/ml, 30 min, SDS lysis
Source text: as §3, §4

[9] = tested on: K. pneumoniae strain 3456; test: as above; format: cell-based; settings: FIG. 1; K. pneumoniae 3456; meropenem 10 μg/ml, 30 min, SDS lysis
Source text: as §3, §4

[10] = tested on: K. pneumoniae strain BAA1705 KPC+; test: as above; format: cell-based; settings: FIG. 5, meropenem 10 μg/ml, 30 min, SDS lysis
Source text: as §3, §4

[11] = tested on: K. pneumoniae strain BAA2146 NDM+; test: as above; format: cell-based; settings: FIG. 5, meropenem 10 μg/ml, 30 min, SDS lysis
Source text: as §3, §4

SMILES: C[C@@H](O)[C@H]1C(=O)N2C(C(=O)O)=C(S[C@@H]3CN[C@H](C(=O)N(C)C)C3)[C@H](C)[C@H]12 [meropenem]
- % diff ([1]; K. pneumo 13882, OD600 vs control): 65.1%
- OD600 ([1]; K. pneumo 13882, antibiotic 10 μg/ml, 30 min, SDS lysis buffer + vortex, 1.5 h culture): 0.127
- assay score (sensitive or resistant) ([1]; K. pneumoniae 13882): sensitive
- % diff ([2]; K. pneumo BAA-1705 (KPC), OD600 vs control): 16.6%
- OD600 ([2]; K. pneumo BAA-1705 (KPC), antibiotic 10 μg/ml, 30 min, SDS lysis buffer + vortex, 1.5 h culture): 0.423
- assay score (sensitive or resistant) ([2]; K. pneumoniae BAA-1705 (KPC)): resistant
- % diff ([3]; K. pneumo BAA-2146 (NDM1), OD600 vs control): −0.3%
- OD600 ([3]; K. pneumo BAA-2146 (NDM1), antibiotic 10 μg/ml, 30 min, SDS lysis buffer + vortex, 1.5 h culture): 0.301
- assay score (sensitive or resistant) ([3]; K. pneumoniae BAA-2146 (NDM1)): resistant
- number of BacUni QuickFISH stained cells, treated vs not treated [4]: significant reduction in the number of stained cells
- number of BacUni QuickFISH stained cells, treated vs not treated [5]: significant reduction in the number of stained cells
- number of BacUni QuickFISH stained cells, treated vs not treated [6]: significant reduction in the number of stained cells
- number of BacUni QuickFISH stained cells, treated vs not treated [7]: significant reduction in the number of stained cells
- number of BacUni QuickFISH stained cells, treated vs not treated [8]: significant reduction in the number of stained cells
- number of BacUni QuickFISH stained cells, treated vs not treated [9]: significant reduction in the number of stained cells
- number of BacUni QuickFISH stained cells, treated vs not treated [10]: similarity in the number of stained cells
- number of BacUni QuickFISH stained cells, treated vs not treated [11]: similarity in the number of stained cells
